Legend:
[1] = target: T1, Serine protease 1 (Bos taurus, UniProt P00760); assay: Inhibitory activity against trypsin
T1 sequence (P00760 whole entry): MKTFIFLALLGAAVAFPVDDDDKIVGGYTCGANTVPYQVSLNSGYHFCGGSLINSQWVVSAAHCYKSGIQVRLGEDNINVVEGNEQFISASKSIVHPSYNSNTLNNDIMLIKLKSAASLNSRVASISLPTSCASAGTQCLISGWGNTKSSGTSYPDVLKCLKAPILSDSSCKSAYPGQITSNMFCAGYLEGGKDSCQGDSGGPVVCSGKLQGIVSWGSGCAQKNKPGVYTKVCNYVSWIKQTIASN

[2] = target: Prothrombin (Bos taurus, UniProt P00735)
Description: Inhibitory activity against thrombin

[3] = target: Coagulation factor X (Bos taurus, UniProt P00743); assay: Inhibitory activity against coagulation factor X.
Sequence of Coagulation factor X (P00743 41-180 limits assumed): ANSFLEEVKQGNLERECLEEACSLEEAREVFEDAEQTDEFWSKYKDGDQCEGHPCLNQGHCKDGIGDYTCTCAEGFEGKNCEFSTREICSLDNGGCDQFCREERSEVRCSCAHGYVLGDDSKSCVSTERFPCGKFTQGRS
Sequence of Coagulation factor X (P00743 234-492 limits assumed): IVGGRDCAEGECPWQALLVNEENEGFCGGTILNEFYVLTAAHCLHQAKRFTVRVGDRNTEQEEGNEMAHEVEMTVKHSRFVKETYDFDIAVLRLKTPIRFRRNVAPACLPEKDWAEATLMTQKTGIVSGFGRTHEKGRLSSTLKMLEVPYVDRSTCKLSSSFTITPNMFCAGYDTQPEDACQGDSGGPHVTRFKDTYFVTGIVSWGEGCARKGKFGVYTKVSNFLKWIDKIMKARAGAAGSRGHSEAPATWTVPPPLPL

[4] = target: Plasminogen (Homo sapiens, UniProt P00747); assay: Inhibitory activity against plasmin
Sequence of Plasminogen (P00747 97-580 limits assumed): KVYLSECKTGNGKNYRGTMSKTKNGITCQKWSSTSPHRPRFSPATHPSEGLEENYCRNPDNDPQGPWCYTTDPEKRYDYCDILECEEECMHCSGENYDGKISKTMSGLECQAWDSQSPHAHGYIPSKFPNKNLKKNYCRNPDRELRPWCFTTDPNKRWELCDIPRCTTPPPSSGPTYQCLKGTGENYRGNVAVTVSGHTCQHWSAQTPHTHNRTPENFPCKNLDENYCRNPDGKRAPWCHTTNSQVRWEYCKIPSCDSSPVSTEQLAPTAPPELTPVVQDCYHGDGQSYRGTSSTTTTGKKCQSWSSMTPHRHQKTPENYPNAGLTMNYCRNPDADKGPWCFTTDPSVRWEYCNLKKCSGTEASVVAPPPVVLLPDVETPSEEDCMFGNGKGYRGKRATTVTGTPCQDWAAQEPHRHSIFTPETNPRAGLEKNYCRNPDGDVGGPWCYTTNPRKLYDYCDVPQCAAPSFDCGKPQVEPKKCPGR
Sequence of Plasminogen (P00747 581-810 limits assumed): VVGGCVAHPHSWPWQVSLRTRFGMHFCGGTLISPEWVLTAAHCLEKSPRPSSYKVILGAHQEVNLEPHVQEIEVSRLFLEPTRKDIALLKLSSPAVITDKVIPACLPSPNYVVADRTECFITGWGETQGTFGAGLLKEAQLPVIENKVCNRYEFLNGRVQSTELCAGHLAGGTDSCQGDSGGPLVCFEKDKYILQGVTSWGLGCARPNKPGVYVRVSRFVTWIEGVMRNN

Row | Ki [3] [µM] | Ki [4] [µM] | SMILES | Ki [1] [µM] | Ki [2] [µM]
1 | – | – | N=C(N)c1cccc(C[C@H](NS(=O)(=O)c2ccc3ccccc3c2)C(=O)N2CCN(CCO)CC2)c1 | 39 | 5.6
2 | – | – | CS(=O)(=O)N1CCN(C(=O)C(Cc2cccc(C(=N)N)c2)NS(=O)(=O)c2ccc3ccccc3c2)CC1 (stereo not given) | 0.19 | –
3 | 38 | 7 | N=C(N)c1cccc(CC(NS(=O)(=O)c2ccc3ccccc3c2)C(=O)N2CCCCC2)c1 (stereo not given) | – | –
4 | 16 | 7.2 | N=C(N)c1cccc(CC(NS(=O)(=O)c2ccc3ccccc3c2)C(=O)N2CCN(C(=O)c3ccccc3)CC2)c1 (stereo not given) | 0.14 | 7.6
5 | – | – | CC(=O)N1CCN(C(=O)[C@H](Cc2cccc(C(=N)N)c2)NS(=O)(=O)c2ccc3ccccc3c2)CC1 | 17 | –
6 | – | – | N=C(N)c1cccc(CC(NS(=O)(=O)c2ccc3ccccc3c2)C(=O)N2CCN(CCO)CC2)c1 (stereo not given) | 1.1 | –
7 | 27 | 2.6 | N=C(N)c1cccc(CC(NS(=O)(=O)c2ccc3ccccc3c2)C(=O)N2CCN(c3ccccc3)CC2)c1 (stereo not given) | – | –
8 | – | – | COc1cc(C)c(S(=O)(=O)NC(Cc2cccc(C(=N)N)c2)C(=O)N2CCN(S(C)(=O)=O)CC2)c(C)c1C (stereo not given) | 1.8 | –
9 | – | – | N=C(N)c1cccc(C[C@H](NS(=O)(=O)c2ccc3ccccc3c2)C(=O)N2CCN(C=O)CC2)c1 | 11.1 | 1.6
10 | – | – | Cc1ccc(S(=O)(=O)N2CCN(C(=O)C(Cc3cccc(C(=N)N)c3)NS(=O)(=O)c3ccc4ccccc4c3)CC2)cc1 (stereo not given) | 0.22 | –
11 | – | – | CC(=O)N1CCN(C(=O)C(Cc2cccc(C(=N)N)c2)NS(=O)(=O)c2ccc3ccccc3c2)CC1 (stereo not given) | 0.14 | –
12 | – | – | CN(C)C(=O)N1CCN(C(=O)C(Cc2cccc(C(=N)N)c2)NS(=O)(=O)c2ccc3ccccc3c2)CC1 (stereo not given) | 0.17 | –
13 | – | – | Cc1c(C)c(S(=O)(=O)NC(Cc2cccc(C(=N)N)c2)C(=O)N2CCN(S(C)(=O)=O)CC2)c(C)c2c1OC(C)(C)CC2 (stereo not given) | 0.76 | –
14 | – | – | N=C(N)c1cccc(CC(NS(=O)(=O)c2ccc3ccccc3c2)C(=O)N2CCN(C(=O)C3CCCCC3)CC2)c1 (stereo not given) | 0.072 | –
15 | – | – | N=C(N)c1cccc(CC(NS(=O)(=O)c2ccc3ccccc3c2)C(=O)N2CCN(S(=O)(=O)c3ccccc3)CC2)c1 (stereo not given) | 0.33 | –
16 | 7.4 | 6.4 | CC(C)c1cc(C(C)C)c(S(=O)(=O)NC(Cc2cccc(C(=N)N)c2)C(=O)N2CCN(S(C)(=O)=O)CC2)c(C(C)C)c1 (stereo not given) | – | –
17 | – | – | CN(C)C(=O)N1CCN(C(=O)[C@H](Cc2cccc(C(=N)N)c2)NS(=O)(=O)c2ccc3ccccc3c2)CC1 | 8.5 | 0.35
18 | 21 | 10.2 | N=C(N)c1cccc(CC(NS(=O)(=O)c2ccc3ccccc3c2)C(=O)N2CCNCC2)c1 (stereo not given) | – | –
19 | 77 | 2.8 | COC(=O)N1CCN(C(=O)C(Cc2cccc(C(=N)N)c2)NS(=O)(=O)c2ccc3ccccc3c2)CC1 (stereo not given) | – | –
20 | – | – | CN1CCN(C(=O)[C@H](Cc2cccc(C(=N)N)c2)NS(=O)(=O)c2ccc3ccccc3c2)CC1 | 73 | 7.1
21 | – | – | N=C(N)c1cccc(CC(NS(=O)(=O)c2ccc3ccccc3c2)C(=O)N2CCN(S(=O)(=O)c3ccc4ccccc4c3)CC2)c1 (stereo not given) | 0.4 | –
22 | – | – | CS(=O)(=O)N1CCN(C(=O)[C@H](Cc2cccc(C(=N)N)c2)NS(=O)(=O)c2ccc3ccccc3c2)CC1 | 13 | –
23 | – | – | CCS(=O)(=O)N1CCN(C(=O)C(Cc2cccc(C(=N)N)c2)NS(=O)(=O)c2ccc3ccccc3c2)CC1 (stereo not given) | 0.19 | –
24 | – | – | CCCCCC(=O)N1CCN(C(=O)C(Cc2cccc(C(=N)N)c2)NS(=O)(=O)c2ccc3ccccc3c2)CC1 (stereo not given) | 0.064 | –
25 | > 1000 | > 1000 | CS(=O)(=O)N1CCN(C(=O)C(N)Cc2cccc(C(=N)N)c2)CC1 (stereo not given) | – | –
26 | – | – | N=C(N)c1cccc(CC(NS(=O)(=O)c2ccc3ccccc3c2)C(=O)N2CCN(C=O)CC2)c1 (stereo not given) | 0.22 | –
27 | – | 14 | CC(C)(C)c1ccc(S(=O)(=O)NC(Cc2cccc(C(=N)N)c2)C(=O)N2CCN(S(C)(=O)=O)CC2)cc1 (stereo not given) | – | –

Row | SMILES | Ki [3] [µM] | Ki [4] [µM] | Ki [1] [µM] | Ki [2] [µM]
28 | CN1CCN(C(=O)C(Cc2cccc(C(=N)N)c2)NS(=O)(=O)c2ccc3ccccc3c2)CC1 (stereo not given) | 30 | 55 | – | 0.036
29 | CC1CCN(C(=O)C(Cc2cccc(C(=N)N)c2)NS(=O)(=O)c2ccc3ccccc3c2)CC1 (stereo not given) | 41 | 5.2 | – | –

— ChEMBL document CHEMBL1130155, “Synthesis and structure-activity relationships of potent thrombin inhibitors: piperazides of 3-amidinophenylalanine” (J Med Chem, 1997)
